Results: patent publication US20200023018A1, “MODULATION OF GUT MICROBIOTA IN HUNTINGTON'S DISEASE AND RETT SYNDROME” (priority 2017, published 2020)
“Also recorded” adds a separate entry of the source.

Columns and labels:
[1] = system: Drosophila model of HD; test: Aggregation of mHDx1 in a Drosophila model of HD (immunohistochemistry, Western blot); type: in vivo
Text: FIG. IB is an image of a Western blot (WB) of different batch pooled larvae examined for MHDx1 aggregation. FIG. 1C is a series of images depicting immunohistochemistry similar to FIG. 1A except that adult flies were used in FIG. 1C. FIG. 1D depicts a WB similar to FIG. 1B, except that adult flies were used in FIG. 1D. The Gal4 induction system with mHDx1 (120Q) downstream of UAS (upstream activation sequence) and the gal4 transactivator downstream of Drosophila neuronal-specific promoter Elav was used to induce the expression of mHDx1 in the nervous system of offspring. In FIG. 1C, the central brain region is shown.
Without being limited by theory, it is contemplated that intestinal microbiota contributes to the aggregation of mutant HTT in the enteric nervous stem (ENS). In a Drosophila model of HD (Barbaro et al., 2015), inducing the expression of a mutant HTT exon-1 fragment (mHDx1) in the nervous system promoted aggregation in the ENS of larvae in the vicinity of the gut (FIGS. 1A and 1B). The initial appearance of aggregates in the larval ENS is thus observed.
Accordingly, it is observed herein that treatment with an antibiotic in accordance with some embodiments herein decreases aggregates of mutant Huntingtin protein.

[2] = system: Rett mice; test: GI pathology and metabolic changes in Rett mice; type: in vivo
Text: In FIG. 14A, each point represents a mouse. N=6 each in FIG. 14C. […] N=6 for FIGS. 14E and 14F.
It was examined whether eliminating the intestinal microbiota of Rett mice alters GI pathology.

[3] = system: Rett mice; test: Staining of brain sections of Rett mice for astrocyte and microglial markers; type: in vivo
Text: FIG. 15A depicts staining with markers of activated astrocyte GFAP (center column) and GS (right column); Overlay of GFAP and GS is shown in left column. […] The Iba-1 and CD11 generally colocalized throughout the hippocampal region, but Iba-1 was expressed at higher levels in the vehicle-treated group (see, e.g, arrow), and lower levels in the rifaximin-treated group.
The finding can be re-confirmed and quantified for statistical analysis. Elevation of GFAP and GS is linked to astrocytes activation and inflammation. Astrocytes are recognized as therapeutic targets for neuroinflammation, neurodegeneration, and neuropsychiatric disorders. Subsets of gut microbes produce molecules, which reach the CNS, lower astrocytes activation, and subsequently reduce the production of inflammatory cytokines (Rothhamrner et al., 2016). Gut bacteria also greatly influence the development of microglia, which are the CNS immune cells (Erny et al., 2015).
For example, animals can be gavaged with known amounts of rifaximin to ensure equal delivery.

[4] = system: Rett mice; test: Behaviors of Rett mice (nest building, climbing, wire-mesh hanging, clasping); type: in vivo
Method: FIG. 58 is a graph depicting that rifaximin-treated mice make more attempts at climbing a wired-mesh cylinder within a 2 min time allowed. FIG. 5C is a graph depicting that testing muscle strength by wired mesh hanging assay. […] N=6. Scoring and procedures were as described in Southwell et al., 2009.
N=6. Scoring and procedures were as described in Southwell et al., 2009.
Nest building is indicative of rodents' well-being, daily activity, positive motivational state, and healthy brain functions (Jirkof, 2014).
Nest building is indicative of rodents' wellbeing, daily activity, positive motivational state, and healthy brain functions (Jirkof, 2014). […] This is consistent with the improved mobility in Rett mice observed herein. The data herein can be confirmed with additional behavioral tests, including rotarod, beam crossing, and open field. These studies can confirm benefits of rifaximin therapy on the CNS pathology and/or aberrant behaviors in Rett syndrome.
This is based on observations that male mice start displaying symptoms when they are ˜10 weeks old.
Hind limb clasping is a marker of disease progression in Rett syndrome and other diseases with motor defects. In this assay animals were suspended by the tail ˜30 cm above the tabletop for 1 min and recorded with a video camera. No clasping is scored as 0, periodic clasping and extension is scored as 1, and full hind limb clasping was scored with occasional extension is scored as 2. Severe clasping is scored as 3.

[5] = system: Rett mice; test: Neurogenesis in Rett mice (doublecortin and ki67 staining); type: in vivo
Text: FIGS. 18A-C are a series of graphs and images depicting effects of microbiota on neurogenesis in Rett mice in accordance with some embodiments herein. FIG. 18A is a series of images depicting doublecortin staining of bilateral hippocampus in vehicle-treated (top panels) and rifaximin-treated Rett mice (bottm panels). FIG. 18B is a graph showing quantification of doublecortin positive cells in the dentate gyrus of bilateral hippocampi (2 layers) from 4 vehicle-treated and 6 rifaximin-treated animals, FIG. 18C is a series of images showing ki67 positive cells (arrows) in the SVZ (subventricular zone) of vehicle (top) and rifaximin-treated Rett mice. Boxed areas highlight regions with dramatic changes (considerably more ki67-positive cells are observed in the rifaximin-treated mose). NeuN staining for neurons (NeuN) is observed as bright foci throughout.

[6] = system: Rett mice; test: Semi-quantitative PCR of gut bacteria in Rett mice; type: in vivo
Text: FIG. 7 is an image depicting the results of semi-quantitative PCR of Rett mice of some embodiments. […] Top panels are Eubacteria amplification used as a positive control.
FIG. 19 is an image showing the results of semi-quantitative PCR in WT and Rett mice in accordance with some embodiments herein.
Less is known about the role of Tenericutes in human health. In animals however, the presence of Tenericutes correlates with digestion of crude fiber (Niu et al., 2015).

[7] = system: Rett mice; test: Learning and memory of Rett mice (novel object recognition, Barnes Maze); type: in vivo; conditions: rifaximin-treated Rett mice; expected
Method: GF WT and Rett mice are also tested for these behaviors the results are compared with the rifaxitnin-treated cohorts.
We previously used this test in an environmental mouse model of autism (Hsiao et al., 2013). Rodents in general spend more time exploring a novel object than a familiar one. The ability to choose the novel object is indicative of learning and recognition memory. The novel object recognition task is conducted in an open field arena with two different kinds of objects. Both objects are generally consistent in height and volume, but are different in shape and appearance. During habituation, the animals are allowed to explore an empty arena. […] The time spent exploring each object and the discrimination index percentage are recorded. This test is used, among other experiments, to assess the cognitive ability of vehicle- and rifaximin-treated Rett mice as well as GF cohorts and quantify and compare the results.
In this test mice learn the position of a hole to escape the brightly lit open surface of the maze. […] Rett mice as well as GF cohorts and quantify and compare the results. For data acquisition the amount of time required for the animal to locate the goal box using visuo-spatial cues surrounding the maze periphery are measured. The number of errors the mice make are recorded to find the escape hole. […]

[8] = system: Rett mice; test: Whole body plethysmography in Rett mice; type: in vivo; conditions: predicted
Text: Whole body plethysmography are used to measure breathing irregularities in Rett mice. This phenotype is common in Rett patients (Lombardi et al., 2015). An accumulating body of literature supports the potential importance of vagus nerve in the regulation of breathing. We predict that intestinal dysbiosis in Rett impairs the vagus nerve activity and exacerbate the breathing abnormalities. […] The Buxco Fine Pointe Unrestrained Whole Body Plethysmograph system from Data Sciences International (DSI; St. Paul, Minn.) are used for these measurements.

[9] = system: Hepatic Encephalopathy (HE) patients; conditions: clinical studies; cited from earlier work
[10] = system: Parkinson's disease patients; conditions: pilot study; cited from earlier work
[11] = system: humans; conditions: cited from earlier work
[12] = system: human microbiota; conditions: cited from earlier work
[13] = Rett mice treated after weaning for 6 weeks
[14] = brain sections from the cortical regions, some of the treated Rett mice, compared to vehicle

CO[C@H]1/C=C/O[C@@]2(C)Oc3c(C)c(O)c4c(O)c(c5c(nc6cc(C)ccn65)c4c3C2=O)NC(=O)/C(C)=C\C=C\[C@H](C)[C@H](O)[C@@H](C)[C@@H](O)[C@@H](C)[C@H](OC(C)=O)[C@@H]1C [rifaximin]
aggregation of mHDx1 in larvae ([1]; Drosophila HD larvae generated in the presence of rifaximin): lowers the aggregation of mHDx1
aggregation of mHDx1 in the CNS of adult flies ([1]; adult HD flies): reduces the aggregation of mHDx1
GI and metabolic symptoms of Rett mice ([2]; Rett mice): eliminated the GI and metabolic symptoms
inflammatory appearance of the GI tract ([2]; Rett mice): reduces the inflammatory appearance of the GI tract
colon length [2, 13]: selectively elongates the colon
intestinal obesity [2, 13]: prevents intestinal obesity
accumulation of abdominal fat ([2]; female Rett mice): prevented
weight gain ([2]; female Rett mice): prevented
staining for glial fibrillary acidic protein (GFAP) [3, 14]: reduced staining
staining for glutamine synthetase (GS) [3, 14]: reduced staining
numbers of microglia (microglial biomarkers) ([3]; brain sections of Rett mice, some of the treated animals): numbers were reduced
Iba-1 expression ([3]; hippocampal region of Rett mice, versus vehicle-treated group): lower levels
activity in the cage environment [4]: more active
hind limb clasping phenotype [4]: significantly reduced clasping phenotype
nest building [4]: build better nests
wire-mesh hanging assay (muscle strength) [4]: perform better; also recorded: enhanced muscle strength
climbing a wire-meshed cylinder ([4]; 2 min time allowed): perform better; also recorded: make more attempts to climb
hippocampal neurogenesis ([5]; compared to vehicle, doublecortin staining): enhanced
dendritic arborization ([5]; compared to vehicle, hippocampus): enhanced
proliferation of cells in the subventricular zone (SVZ) ([5]; ki67): Enhanced proliferation
abundance of Bifidobacteria in the GI tract [6]: did not increase
abundance of the phylum Tenericutes [6]: increased abundance
learning and memory [7]: learning and memory are improved
breathing defects [8]: ameliorate some of the breathing defects
bacterial load [9]: decreases bacterial load
leaky gut [9]: corrects leaky gut
severity of aberrant behaviors (anxiety, irritability, depression, motor symptoms, cognitive impairment) [9]: reduces the severity of several aberrant behaviors
motor functions [10]: improved motor functions
safety and tolerability [11]: safe and well tolerated
proliferation of probiotic species including Bifidobacteria [12]: promotes the proliferation
